Source: US20040034026A1, “Combination comprising an agent decreasing vegf activity and an agent decreasing egf activity” (priority 2000, published 2004)

Key:
[1] = tested on: DU145 prostate carcinoma human cell lines; assay: DU145 prostate carcinoma human cell lines grown i.d. in nude mice; type: in vivo
Protocol: DU145 Prostate Carcinoma Human Cell Lines Grown i.d. in Nude Mice
DU145 prostate carcinoma human cell lines are grown i.d. in nude mice. Tumor cell (10^6) are injected intradermally (i.d.) on the left and right flank of nude mice. Treatment with compounds is started after 25-32 days when tumors reach a size of 80-100 mm^2. At this time animals are sorted into groups with equivalent mean and range of tumor sizes. Treatment is then randomized to the different groups. Tumor size is measured with calipers on a weekly basis.
After 4 weeks of treatment, 50 mg/kg po/day of PTK787 (active ingredient 1) reduces the tumor growth by 74%. 50 mg/kg po/day of the selective EGF receptor tyrosine kinase inhibitor as described in Example 1 of WO 96/33980 (active ingredient 2) reduces tumor growth by 91%. The maximum effects of either agent given alone in this model is stable disease. Simultaneous treatment with both active ingredients (50 mg/kg po/day of each active ingredient) results in tumor regression (25% reduction compared to intial tumor weight).
After 2 weeks of treatment, 50 mg/kg po/day of PTK787 (active ingredient 1) reduces the tumor growth by 41%. 50 mg/kg po/day of the selective EGF receptor tyrosine kinase inhibitor PKI166 reduces tumor growth by 44%. Simultaneous treatment with both active ingredients (50 mg/kg po/day of each active ingredient) reduces the tumor growth by 74%.

[2] = tested on: NeuT transfected HC11 mouse mammary epithelial cells (breast tumors); assay: Mouse breast carcinoma induced by transfection of breast epithelial cells with NeuT (transgenic organ tumor model); type: in vivo; conditions: female BALB/c mice, 100 mg/kg of each active ingredient once per day; fraction of tumors
Protocol: Treatment of Mouse Breast Carcinoma Induced by Transfection of Breast Epithelial Cells with NeuT (Transgenic Organ Tumor Model)
The dual treatment with PTK787 in the form of its succinate salt (active ingredient 1, Example 62 of WO 98/35958) and an EGF receptor tyrosine inhibitor of formula IV wherein q′ is 1, n′ is 0, R^E1 is hydrogen, R^E2 is 3-acetylamino phenyl and R^E6 is methyl (active ingredient 2, Example 22e of WO 97/02266) is performed on a genetically engineered tumor model, which uses “transgenic” organs in normal mice. NeuT (the point mutated rat homolog of erbB-2) transfected HC11 epithelial mouse mammary epithelial cells are transplanted into the gland-free mammary fat pad (cleared fat-pad) of the fourth mammary gland of female BALB/c mice according to an established method (DeOme, Faulkin, et al., Cancer Res. 19: 515-520, 1959). Within 4 to 6 weeks, the transplanted oncogene-transfected mammary epithelial cells develop breast tumors. Tumors are focal and heterogeneous in morphology, and oncogene and other molecular marker expression. Tumors grow rapidly and most of the animals develop breast tumors bilaterally after transplantation. The animals are allocated randomly to three different treatment groups. A first group is treated with 100 mg/kg of active ingredient 1 dosed once per day alone; a second group is treated with 100 mg/kg of active ingredient 2 dosed once per day alone; and a third group is treated with the combination of both active ingredients dosed with 100 mg/kg once per day. […]

[3] = 50 mg/kg po/day of each active ingredient, after 2 weeks of treatment
[4] = 50 mg/kg po/day, after 4 weeks of treatment

| Compound | reduction of tumor growth [1, 3] | reduction of tumor growth [1, 4] | tumors with regression [2] | tumors with stable disease [2] | tumors without response to the treatment [2] |
| --- | --- | --- | --- | --- | --- |
| C[C@@H](Nc1ncnc2[nH]c(-c3ccc(O)cc3)cc12)c1ccccc1 [PKI166] | 44% | – | – | – | – |
| COc1cc2ncnc(Nc3ccc(F)c(Cl)c3)c2cc1OCCCN1CCOCC1 [Example 1 of WO 96/33980, reference compound] | – | 91% | – | – | – |
| Clc1ccc(Nc2nnc(Cc3ccncc3)c3ccccc23)cc1 [PTK787] | 41% | 74% | 7% | 21% | 78% |
